Entries after “also recorded” stand apart in the source; their conditions may differ.
Legend:
[1] = system: luciferase+ mouse T cells; experiment: proliferation of luciferase+ mouse T cells in vitro (plate-bound anti-CD3, luminescence); type: cell-based; conditions: 96 hours; for lowest concentration of peptide that led to maximal luminescence: luc+ T cell proliferation, plate-bound anti-CD3; for luc+ T cell proliferation: relative luminescence, quadruplicate wells, plate-bound anti-CD3, daily addition of peptide, at the concentration in brackets
From the text: (§1) VIP-related peptides tested in silico for predicted binding affinities to human VPAC1 and VPAC2 (Creative Biolabs). Docking scores show predicted free energy change associated with peptide binding. Note that a greater negative score is predicted to be associated with higher binding affinity. Based upon an initial screen of 300 peptides for binding affinity to VPAC1 and screening a subset of 100 peptides for binding affinity to VPAC2, a select group of peptides were synthesized and tested for their ability to stimulate proliferation of luciferase+ mouse T cells in vitro. The lowest concentration of peptide that led to maximal luminescence is shown. Proliferation data represents the relative level of luminescence from quadruplicate wells containing 1×10E5 T cells/well in a 96 well tissue culture plate stimulated for 96 hours with plate-bound anti-CD3 antibodies. Confirmatory in vivo testing of select peptides was then performed based upon their ability to induce autologous anti-leukemia responses in C57Bl/6 mice that had been previously injected with 1×10E6 C1498 acute myeloid leukemia cells. Leukemia cells were injected on day 0, 10 ug peptide was injected s.c. daily on days 6-12. The predicted binding affinity to VPAC1 and/or VPAC2 was associated with enhanced activity in stimulating mouse T cell proliferation and anti-leukemia activity in mice.

[2] = system: C1498 acute myeloid leukemia cells; experiment: survival of mice engrafted with C1498 acute myeloid leukemia; type: in vivo, mouse; set-up: percentage of survival: concentration or dose not given beside the values; conditions: for Median survival time / Percentage alive day 60: 1 x 10E6 C1498 i.v. on day 0, 10 ug peptide s.c. daily on days 6-12
Experimental: B6 (CD45.2, H-2K^b) mice were administered C1498 1×10^6/mouse through tail vein. […] Survival of the mice was observed daily. Data were pooled from 3 replicated experiments.
B6 (CD45.2, H-2K^b) mice were administered C1498 1×10^6/mouse through tail vein. […] Survival of the mice was observed daily. Survival of the mice were pooled from 3 replicated experiments and analyzed by log-rank test compared with the survival of mice treated with scrambled peptide.
B6 SJL (CD45.1, H-2K^b) mice were administered C1498 (CD45.2 H-2K^b) 1×10^6/mouse through tail vein. […] The mice were bled weekly from the submandibular vein, starting from day 6, prior to the administration of peptides. Antibodies to CD45.2 identified myeloid leukemia cells and antibodies to CD45.1 identified murine leukocytes of the host.
as §1
To test the ability of the disclosed VIP-R antagonists to effect survival to acute myeloid leukemia survival, B6 (CD45.2, H-2K^b) mice were administered C1498 1×10^6/mouse through tail vein. […] Survival of the mice was observed daily.

[3] = toxicity in immunologically naive C57BL/6 mice; type: in vivo; conditions: for H&E staining of colon and lung tissue: FIG. 29c-29d; for overall survival, activity levels or weight of mice: daily s.c. for 10 days, same dose as anti-cancer protocol, FIG. 29a; for toxicity in C57BL/6 mice: daily s.c. injection for 10 days, analyzed day 11, FIG. 29
From the text: C57BL/6 mice received daily subcutaneous injection of ANT008 or ANT308 for 10 days (n=5 per group) and analyzed for evidence of toxicity on day 11. (FIG. 29A) Body weight in grams during the duration of drug administration; (FIG. 29B) Number of WBCs, RBCs and platelets in blood as per complete blood count (left) proportions of T cells, B cells, NK cells, DCs and MDSCs in spleen as identified by flow cytometry (right) are plotted. Representative H&E stained sections of (FIG. 29C) colon (top), lungs (bottom) and (FIG. 29D) liver are shown. Arrows in FIG. 29D show the focal hepatic lesions in liver. […] C57BL/6 mice received daily subcutaneous injection of 30 ug of ANT308 (n=6) or a combination of 30 ug of ANT308 daily along with 200 ug of anti-PD1 every 3 days (n=6), for a duration of 4 days. Mice receiving scrambled peptide and isotype IgG served as control (n=4). (FIG. 29E) Weight of the mice, (FIG. 29F) complete blood count (CBC) and (FIG. 29G) serum chemistries after 4 days of treatment are plotted. P values in FIGS. 29B, 29E, 29F, and 29G were calculated by ANOVA followed by Dunnett's post-test. Error bars represent mean and standard deviation. *p<0.05, **p<0.01.
To evaluate the effect of VIP-R-mediated signaling inhibition on the growth of PDAC tumors in vivo, three different murine PDAC tumors (KPC-Luc, MT5 and Panc02) were implanted in syngeneic immunocompetent C57BL/6 mice. After tumors were palpable, mice were randomly allocated to treatment with VIP-R antagonists and/or anti-PD-1 monoclonal antibody, or control groups that received scrambled peptide or isotype-matched IgG. […] In addition to the antitumor efficacy, the safety of VIP-R antagonists in immunologically naïve mice was confirmed (FIGS. 29a-29g).
Histology. All tissues for histology were fixed at 4° C. for 2-3 days in 4% paraformaldehyde in PBS, embedded in paraffin and cut into 5-μm thick sections. Slides were deparaffinized with EZ-Prep (#05279771001, Ventana, Tucson, AZ) and then were antigen retrieved for 64 minutes with CC1 reagent (#950-500, Ventana, Tucson, AZ). Mouse anti-VPAC1 and anti-VPAC2 from Sigma Aldrich (St. Louis, MO) diluted at 1:500 or rabbit anti-cytokeratin-19 (Abcam, Cambridge, MA) diluted at 1:500 were applied and incubated for 40 minutes. DISCOVERY OmniMap anti-mouse or anti-rabbit HRP was applied and incubated for 12 minutes. The detection was completed in combination with DISCOVERY ChromoMap DAB kit as per manufacturer's recommendations. Pancreas harvested from mice with orthotopically implanted KPC-Luc tumors or colon, liver and inflated lungs harvested from naïve C57BL/6 mice receiving ANT008 or ANT308 were formalin-fixed and paraffin embedded before being stained with H&E (Leica 560 MX, Wetzlar, Germany) or Masson's Trichrome (Polyscientific Inc., Bay Shore, NY). All slides were dehydrated, cover-slipped and scanned on Hamamatsu Nanozoomer 2.0 HT at 40× and reviewed by a pathologist.

Sequence | lowest concentration of peptide that led to maximal luminescence [1] [µM] | luc+ T cell proliferation [1] | Median survival time [2] [days] | Percentage alive day 60 [2] [%] | clearance of C1498 leukemia and long-term survival ([2]; FIGS. 39 and 40) | H&E staining of colon and lung tissue [3] | overall survival, activity levels or weight of mice [3] | toxicity in C57BL/6 mice [3] | percentage of survival ([2]; FIG. 3, leukemia-bearing mice treated with peptide) [%]
KPRRPYTSDYTRLRKQMAVKKYLNLILN [ANT308] | 3 | 109% + 8% | 34 | 40 | dose-dependent clearance; also recorded: schedule-dependent clearance | did not show lymphocytic infiltrates or histopathology to suggest auto-immunity | did not affect | no adverse toxicity | –
KPRRPYTDNYTRLRKQMAVKKYLNLILN [ANT008] | 1 | 185% + 24% | 35 | 16 | – | did not show lymphocytic infiltrates or histopathology to suggest auto-immunity | did not affect | no adverse toxicity | 16

Reference: patent US20240247048A1 (EMORY UNIVERSITY, priority 2021, published 2024)
